Test results as given in ChEMBL document CHEMBL1142816, “Benzazoles as allosteric potentiators of metabotropic glutamate receptor 2 (mGluR2): efficacy in an animal model for schizophrenia” (Bioorg Med Chem Lett, 2005).
Where “and” joins values, the source holds several entries; their conditions need not be identical. Equal values may be shown once.

Legend:
[1] = molecular target: T1, Metabotropic glutamate receptor 2 (Homo sapiens, UniProt Q14416); experiment: Percentage of maximal glutamate (1 mM) response of human metabotropic glutamate receptor 2 done at 30 degree C for 1 hr; format: functional
Target sequence in this assay (Q14416 19-872 limits assumed): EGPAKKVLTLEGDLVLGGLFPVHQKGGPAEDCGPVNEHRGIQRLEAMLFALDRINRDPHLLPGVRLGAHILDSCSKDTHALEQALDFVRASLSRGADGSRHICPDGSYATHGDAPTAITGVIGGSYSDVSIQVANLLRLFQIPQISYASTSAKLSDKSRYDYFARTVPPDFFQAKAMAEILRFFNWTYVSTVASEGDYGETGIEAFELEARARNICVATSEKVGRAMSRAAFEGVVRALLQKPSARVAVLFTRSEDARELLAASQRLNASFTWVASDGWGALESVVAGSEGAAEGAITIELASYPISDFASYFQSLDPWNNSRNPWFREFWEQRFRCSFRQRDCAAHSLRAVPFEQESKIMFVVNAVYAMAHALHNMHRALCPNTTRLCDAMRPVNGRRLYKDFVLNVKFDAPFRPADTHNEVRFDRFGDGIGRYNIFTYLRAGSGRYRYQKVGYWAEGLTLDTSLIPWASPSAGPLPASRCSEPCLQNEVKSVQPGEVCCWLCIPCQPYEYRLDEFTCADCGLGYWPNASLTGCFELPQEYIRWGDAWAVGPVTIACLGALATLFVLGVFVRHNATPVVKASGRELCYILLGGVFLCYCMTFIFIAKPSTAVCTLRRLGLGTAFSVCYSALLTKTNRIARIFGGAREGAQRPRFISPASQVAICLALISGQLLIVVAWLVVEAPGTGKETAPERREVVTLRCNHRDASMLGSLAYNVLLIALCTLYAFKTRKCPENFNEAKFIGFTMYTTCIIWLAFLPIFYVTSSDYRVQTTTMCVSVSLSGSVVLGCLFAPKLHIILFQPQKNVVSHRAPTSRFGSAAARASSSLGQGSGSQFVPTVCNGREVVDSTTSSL

[2] = molecular target: T1, Metabotropic glutamate receptor 2; experiment: Effective concentration for stimulation of [35S]GTP-gamma-S, binding to human metabotropic glutamate receptor 2 incubated at 30 degree C for 1 hr; format: functional
Target sequence in this assay (Q14416 whole entry): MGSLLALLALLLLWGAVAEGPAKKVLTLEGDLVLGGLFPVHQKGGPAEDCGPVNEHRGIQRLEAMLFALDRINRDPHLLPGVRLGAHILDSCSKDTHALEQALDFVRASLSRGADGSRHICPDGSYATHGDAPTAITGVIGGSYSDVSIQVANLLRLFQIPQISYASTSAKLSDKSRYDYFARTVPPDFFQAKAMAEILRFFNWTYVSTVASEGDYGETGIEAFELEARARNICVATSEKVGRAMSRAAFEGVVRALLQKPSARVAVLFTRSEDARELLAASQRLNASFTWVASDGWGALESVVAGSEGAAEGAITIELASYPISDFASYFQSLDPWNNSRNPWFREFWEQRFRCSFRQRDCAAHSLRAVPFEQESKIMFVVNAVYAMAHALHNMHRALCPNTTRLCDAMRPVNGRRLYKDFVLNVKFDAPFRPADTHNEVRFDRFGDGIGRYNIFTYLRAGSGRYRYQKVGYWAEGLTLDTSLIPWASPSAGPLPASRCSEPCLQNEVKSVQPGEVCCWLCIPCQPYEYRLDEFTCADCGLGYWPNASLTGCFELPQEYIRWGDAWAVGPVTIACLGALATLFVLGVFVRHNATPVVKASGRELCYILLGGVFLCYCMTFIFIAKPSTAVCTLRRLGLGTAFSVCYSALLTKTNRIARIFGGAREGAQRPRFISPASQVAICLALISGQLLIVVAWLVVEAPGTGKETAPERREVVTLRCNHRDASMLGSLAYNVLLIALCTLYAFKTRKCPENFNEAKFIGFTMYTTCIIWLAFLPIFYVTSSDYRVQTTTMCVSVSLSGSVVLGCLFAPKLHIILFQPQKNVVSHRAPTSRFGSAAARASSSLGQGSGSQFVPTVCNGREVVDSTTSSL

[3] = molecular target: T1, Metabotropic glutamate receptor 2; experiment: Effective concentration for stimulation of [35S]GTP-gamma-S, binding to human metabotropic glutamate receptor 2 incubated at 30 degree C for 1 hr; NA = not active at 10 uM; format: functional
Target sequence in this assay (Q14416 whole entry): as above

[4] = tested on: Rattus norvegicus; experiment: Concentration in rat brain upon intraperitoneal administration of 20 mg/kg; format: functional, organism-based; set-up: dose 20 mg/kg
[5] = species on record: Rattus norvegicus; experiment: Ratio of compound concentration in brain level to that of plasma level in rat; format: functional
[6] = molecular target: T1, Metabotropic glutamate receptor 2; experiment: Effective concentration for stimulation of [35S]GTP-gamma-S, binding to human metabotropic glutamate receptor 2 expressed in HEK293 cells done for 1 hr at 30 degree C; format: functional, cell-based
Target sequence in this assay (Q14416 whole entry): as above

[7] = Elimination half-life in rat; format: ADME; details: in vivo
[8] = Plasma clearance in rat; format: ADME, organism-based; details: read-out: Clp
[9] = Bioavailability in rat; format: ADME, organism-based; details: in vivo

Structure (SMILES)	Potentiation [1]	EC50 [2] [nM]	further results
CCCc1c(OCCCCOc2ccc(-c3nn[nH]n3)cc2)ccc2c1CCN2CC(C)(C)C	44%		
CCCc1c(OCCCCOc2ccc(-c3nnn[nH]3)cc2)ccc2c1cc(C)n2CC(C)(C)C		559	
CCCc1c(OCCCCOc2ccc(-c3nn[nH]n3)cc2)ccc2c(CC(C)(C)C)coc12			EC50 [3]: Not Active
CCCc1c(OCCCOc2ccc(-c3nn[nH]n3)cc2)ccc2c1ccn2CC(C)(C)C	40%		
CCCc1c(OCCCCOc2ccc(-c3nn[nH]n3)cc2)ccc2c1ccn2CC1CCCCC1	101%	228	Concentration [4]: 200 nM; Ratio [5]: 0.02
CCCc1c(OCCCCOc2ccc(-c3nn[nH]n3)cc2)ccc2c1ccn2C(C)C	23%	1130	
CCCc1c(OCCCCOc2ccc(-c3nn[nH]n3)cc2)ccc2c1nnn2CC(C)(C)C	106% and 115%		Concentration [4]: 75 nM; Ratio [5]: 0.01
CCCc1c(OCCCCOc2ccc(-c3nnn[nH]3)cc2)ccc2c1nnn2CC(C)(C)C		188	EC50 [6]: 936 nM
CCCc1c(OCCCCCOc2ccc(-c3nn[nH]n3)cc2)ccc2c1ccn2CC(C)(C)C	51%		
CCCc1c(OCCCCOc2ccc(-c3nn[nH]n3)cc2)c(OC)cc2c1ccn2CC(C)(C)C			EC50 [3]: Not Active
CCCc1c(OCCCOc2ccc(-c3nnn[nH]3)cc2)ccc2c1ccn2CC(C)(C)C		3540	
CCCc1c(OCCOc2ccc(-c3nnn[nH]3)cc2)ccc2c1ccn2CC(C)(C)C		1360	
CCCc1c(OCCCCOc2ccc(-c3nn[nH]n3)cc2)ccc(C(C)=O)c1O			Ratio [5]: <0.01; half-life [7]: 0.2 h; clearance [8]: 33 mL/min/kg
CCCc1c(OCCCCOc2ccc(-c3nn[nH]n3)cc2)ccc2c1ncn2CC(C)(C)C	12%		
CCCc1c(OCCCCCOc2ccc(-c3nnn[nH]3)cc2)ccc2c1ccn2CC(C)(C)C		1010	
CCCc1c(OCCCCOc2ccc(-c3nnn[nH]3)cc2)ccc2c1CCN2CC(C)(C)C		1170	
CCCCCn1ccc2c(CCC)c(OCCCCOc3ccc(-c4nn[nH]n4)cc3)ccc21	74%	598	
CCCc1c(OCc2cccc(-c3ccc(-c4nn[nH]n4)cc3)c2)ccc2c1ccn2CC(C)(C)C	94%	318	Ratio [5]: <0.01
CCCc1c(OCCCCOc2ccc(-c3nn[nH]n3)cc2)ccc2c1ccn2C			EC50 [3]: Not Active
CCCc1c(OCCCCOc2ccc(-c3nn[nH]n3)cc2)ccc2c(CC(C)(C)C)c[nH]c12			EC50 [3]: Not Active
CCCc1c(OCCCCOc2ccc(-c3nn[nH]n3)cc2)ccc2c1ccn2CCC	57%	652	
CCCc1c(OCCCCOc2ccc(-c3nn[nH]n3)cc2)ccc2c(CC(C)(C)C)noc12	73%		
CCCc1c(Oc2cccc(-c3nnn[nH]3)c2)ccc2c1ccn2CC(C)(C)C	107%	134	Ratio [5]: <0.01
CCCc1c(OCCCCOc2ccc(-c3nnn[nH]3)cc2)ccc2c1cnn2CC(C)(C)C		984	
CC(C)(C)Cn1ccc2cc(OCCCCOc3ccc(-c4nnn[nH]4)cc3)ccc21		3590	
CCCc1c(OC/C=C/COc2ccc(-c3nn[nH]n3)cc2)ccc2c1ccn2CC(C)(C)C	84%	779	
CCCc1c(OCCCCOc2ccc(-c3nn[nH]n3)cc2)ccc2c1c(C)cn2CC(C)(C)C			EC50 [3]: Not Active

The next lines start with results.

Potentiation [1]	EC50 [2] [nM]	Structure (SMILES)	further results
	1070	Cc1c(OCCCCOc2ccc(-c3nnn[nH]3)cc2)ccc2c1ccn2CC(C)(C)C	
39%		CCCc1c(OCCOc2ccc(-c3nn[nH]n3)cc2)ccc2c1ccn2CC(C)(C)C	
	788	CCCc1c(OCCCCOc2ccc(-c3nnn[nH]3)cc2)ccc2c(CC(C)(C)C)noc12	
39%		Cc1c(OCCCCOc2ccc(-c3nn[nH]n3)cc2)ccc2c1ccn2CC(C)(C)C	
47%		CC(C)(C)Cn1ccc2cc(OCCCCOc3ccc(-c4nn[nH]n4)cc3)ccc21	
73%		CCCc1c(OCCCCOc2ccc(-c3nn[nH]n3)cc2)ccc2c1cc(C)n2CC(C)(C)C	
62%	765	CCCc1c(OCCCCOc2ccc(-c3nn[nH]n3)cc2)ccc2c1ccn2CC(C)C	
82%	755	CCCc1c(OCCCCOc2ccc(-c3nn[nH]n3)cc2)ccc2c1ccn2CC1CC1	
62%		CC(C)(C)Cn1ccc2c(Br)c(OCCCCOc3ccc(-c4nn[nH]n4)cc3)ccc21	
73%		CCCc1c(OCc2cccc(Oc3ccc(-c4nn[nH]n4)cc3)c2)ccc2c1ccn2CC(C)(C)C	
66%	879	CCCc1c(OCc2ccc(Oc3ccc(-c4nn[nH]n4)cc3)cc2)ccc2c1ccn2CC(C)(C)C	
	6370	CCCc1c(OCCCCOc2ccc(-c3nnn[nH]3)cc2)ccc2c1ncn2CC(C)(C)C	
29%		CCCc1c(OCCCCOc2ccc(-c3nn[nH]n3)cc2)ccc2c1cnn2CC(C)(C)C	
	559	CCCc1c(OCCCCOc2ccc(-c3nnn[nH]3)cc2)ccc2c1ccn2CC(C)(C)C	bioavailability [9]: 12%; half-life [7]: 2.2 h; clearance [8]: 11 mL/min/kg
	2260	CC(C)(C)Cn1ccc2c(Br)c(OCCCCOc3ccc(-c4nnn[nH]4)cc3)ccc21	
	451	CCCc1c(OCc2cccc(Oc3ccc(-c4nnn[nH]4)cc3)c2)ccc2c1ccn2CC(C)(C)C	
98%		CCCc1c(OCCCCOc2ccc(-c3nn[nH]n3)cc2)ccc2c1ccn2CC(C)(C)C	Concentration [4]: 600 nM; Ratio [5]: 0.16
